A compilation of properties of binary mixtures (doi:10.1021/je200600p)

Experiment: xn = mol fraction of the nth substance listed
Conditions: 101 kPa

CCCC[n+]1ccn(C)c1.COP(=O)([O-])OC + CCO
viscosity [mPa·s]
Conditions | 293.15 K | 298.15 K | 303.15 K | 308.15 K | 313.15 K | 318.15 K | 323.15 K | 328.15 K | 333.15 K
x2 = 0.201 | 396 | 284 | 210 | – | 119 | 92.7 | 73.3 | 59.06 | 48.16
x2 = 0.399 | – | – | 88.9 | 69.9 | – | – | – | – | –
x2 = 0.6 | 42.1 | 34.3 | 28.18 | 23.56 | 19.87 | 16.97 | 14.59 | 12.66 | 11.06
x2 = 0.8 | 8.84 | 7.704 | 6.718 | – | – | 4.711 | – | – | 3.454

CC[n+]1ccn(C)c1.COP(=O)([O-])OC + CCO
viscosity [mPa·s]
Conditions | 293.15 K | 298.15 K | 303.15 K | 308.15 K | 313.15 K | 318.15 K | 323.15 K | 328.15 K | 333.15 K
x2 = 0.199 | 190.6 | 142.7 | 109.5 | 85.8 | 68.4 | 55.53 | 45.75 | – | 32.27
x2 = 0.398 | 87.3 | – | – | 45 | 37.37 | – | 26.44 | 22.64 | 19.56
x2 = 0.598 | 27.63 | – | 19.83 | 17.05 | 14.8 | – | 11.36 | 10.04 | 8.951
x2 = 0.798 | 6.898 | 6.127 | 5.471 | – | 4.425 | 4.004 | 3.634 | 3.318 | 3.037

CCCC[n+]1ccn(C)c1.COP(=O)([O-])OC + CO
viscosity [mPa·s]
Conditions | 293.15 K | 298.15 K | 303.15 K | 308.15 K | 313.15 K | 318.15 K | 323.15 K | 328.15 K | 333.15 K
x2 = 0.203 | 395 | 282 | 206 | 154.4 | 117.9 | 91.5 | 72.5 | 58.3 | 47.6
x2 = 0.404 | 150.1 | 113.3 | 87.5 | – | 54.86 | – | 36.49 | 30.37 | 25.51
x2 = 0.6 | 38.6 | 31.59 | 26.19 | 21.99 | 18.59 | 15.94 | 13.78 | 11.99 | 10.48
x2 = 0.8 | – | 6.267 | 5.536 | 4.923 | – | 3.972 | 3.665 | 3.338 | 3.051

CC[n+]1ccn(C)c1.COP(=O)([O-])OC + CO
viscosity [mPa·s]
Conditions | 293.15 K | 298.15 K | 303.15 K | 308.15 K | 313.15 K | 318.15 K | 323.15 K | 328.15 K | 333.15 K
x2 = 0.198 | 197.6 | 147.8 | 112.7 | 88 | 70.2 | 56.83 | 46.73 | 39.02 | 32.96
x2 = 0.399 | 77.9 | 61.74 | 49.69 | 40.72 | 33.84 | 28.41 | 24.24 | – | –
x2 = 0.598 | 24.32 | – | 17.64 | 15.26 | 13.28 | 11.67 | 10.3 | 9.132 | 8.188
x2 = 0.799 | 5.308 | 4.769 | 4.309 | 3.911 | 3.566 | – | 2.998 | 2.763 | 2.555

CCCC[n+]1ccn(C)c1.COP(=O)([O-])OC + O
viscosity [mPa·s]
Conditions | 293.15 K | 298.15 K | 303.15 K | 308.15 K | 313.15 K | 318.15 K | 323.15 K | 328.15 K | 333.15 K
x2 = 0.201 | 594 | 410 | – | 212 | 157.5 | 119.7 | 92.7 | 73.1 | 58.55
x2 = 0.398 | 356 | – | 181.6 | 134.7 | 102 | – | 62.07 | – | 40.4
x2 = 0.601 | 148.3 | 108.5 | – | 62.54 | 48.93 | 39.05 | 31.67 | 26.05 | 21.69
x2 = 0.799 | 39.94 | 30.68 | 24.17 | 19.42 | – | 13.14 | 11.05 | 9.37 | 8.037

CC[n+]1ccn(C)c1.COP(=O)([O-])OC + O
viscosity [mPa·s]
Conditions | 293.15 K | 298.15 K | 303.15 K | 308.15 K | 313.15 K | 318.15 K | 323.15 K | 328.15 K | 333.15 K
x2 = 0.198 | – | – | – | 119.7 | 93 | – | 59.37 | 48.61 | –
x2 = 0.399 | 194.9 | 143.4 | 108.1 | 83.5 | 65.74 | – | 42.99 | – | 29.81
x2 = 0.6 | 98.6 | 74.5 | 57.7 | 45.45 | 36.43 | 29.68 | 24.55 | 20.58 | 17.46
x2 = 0.799 | 32.35 | 25.47 | 20.44 | 16.68 | 13.81 | – | 9.81 | 8.405 | 7.264
